Measurements taken from patent US20160355782A1, “METHOD FOR ENHANCING DIFFERENTIATION OF DOPAMINERGIC NEURONS” (Buddhist Tzu Chi Medical Foundation, priority 2015, published 2016).

Assays:
[1] = system: cortical neural precursor cells (NPCs); experiment: TH+ cell differentiation of lentivirus-transduced (Nurr1 or GFP) cortical NPCs; assay type: cell-based, rat
Procedure: Cultures of neural precursor cells (NPCs) derived from cortices at E13.5 were performed as the methods known by a person skilled in the art, for example, as the protocol described by Huang et al. (2012) and carried out with some modifications. Briefly, dissected cortical tissues were mechanically triturated and plated at 5×10^4 cells on coverslips (12-mm diameter) pre-coated with 20 μg/mL fibronectin (Invitrogen)/15 μg/mL poly-L-ornithine (Sigma-Aldrich) in 24 well plates. Cells were cultured in a serum-free NPCs culture medium containing DMEMF12, 2% B27 supplement (Invitrogen), 0.6% glucose, 20 ng/mL bFGF (Sigma-Aldrich), 20 ng/mL EGF (Invitrogen), 2 μg/mL heparin (Sigma-Aldrich), 100 U/mL penicillin, and 100 μg/mL streptomycin.
TH promoter assay or lenti-virial transductions were carried out at 60%˜70% cell confluences (usually for 3 days) as described below. Cell differentiation was induced for 3 to 5 days by switching to mitogens-free DMEM/F12/N2 medium in the presence of 0.5 μM UCN. Differentiation medium was changed every other day.
For lenti-viral transduction, E13 cortical NPCs were incubated with lenti-viruses (25 multiplicity of infection) expressing Nurr1 or GFP containing poly-brene (hexadimethrine bromide, 1 μg/mL, Sigma-Aldrich) for 24 hours. After 1 day of further cell expansion in the presence of the mitogens, cells were induced to differentiate.
For immuno-cytochemistry, cells were fixed with 4% paraformaldehyde followed by blocking with PBS containing 0.4% Triton X-100, 3% normal goat serum and 2% bovine serum albumin (BSA) for 1 h at room temperature. After blocking, cells were incubated overnight at room temperature with primary antibodies. Primary antibodies were rabbit anti-UCN (1:200), mouse anti-TH (1:2000) (both from Sigma-Aldrich), goat anti-CRHR1 (1:100), rabbit anti-CRHR2 (1:250), rat anti-dopamine transporter (DAT, 1:200), chicken anti-MAP2 (1:5000) (all from Abcam, Cambridge, Mass.), rabbit anti-Nurr1 (1:100, Santa Cruz Biotechnology), mouse anti-Nurr1 (1:100, R&D Systems, Minneapolis, Minn.), rabbit anti-TH (1:1000), mouse anti-NeuN (1:200) (both from Chemicon, Temecula, Calif.), rabbit anti-acetyl-histone H3 (1:1000, Upstate Biotechnology, Lake Placid, N.Y.), rabbit anti-Foxa2 (1:500, Cell Signaling Technology), and rabbit anti-Pitx3 (1:100, Invitrogen).
For detection of dopaminergic neurons, the bound anti-TH antibody was visualized by incubation with an appropriate biotinylated secondary antibody followed by the Vectastain avidin-biotin-peroxidase (ABC) reagents (Vector Laboratories, Burlingame, Calif.) and color development with 3,3′-diaminobenzidine. The number of TH-positive neurons were counted in the entire surface area of a culture well or coverslip. For fluorescent double-labeling experiments, cells were incubated for 1 h at room temperature with rhodamine-conjugated donkey anti-mouse IgG (1:250), FITC-conjugated goat anti-rabbit IgG (1:250) or FITC-conjugated donkey anti-goat IgG (1:200) secondary antibodies (all from Jackson Immuno Research, West Grove, Pa.). Samples were counter-stained with Hoechst 33342 (5 μg/mL, Sigma-Aldrich) or DAPI (1 μg/mL), and mounted with 50% glycerol in PBS. Microscopic observations were done with a Zeiss Axiovert 200 M fluorescent microscope or a Zeiss LSM 510 META confocal imaging system (Carl Zeiss, Oberkochen, Germany). Immuno-reactive or Hoechst 33342-stained cells were counted in at least 10 random areas of each culture coverslip at a magnification of 100×.

rat TH promoter = experiment: Chromatin immuno-precipitation (ChIP) at the TH promoter in VM precursor cultures; assay type: cell-based
Procedure: VM precursor cultures were treated with 1 μM UCN for about 1 to 2 days. VM cells for ChIP from rat embryos, the pregnant rats on day 12.5 of gestation were intra-peritoneally injected with saline as control or 10 μg/kg UCN as treatment every 24 h for 3 days before sacrifice. The ventral mesencephalon from E15.5 embryos was dissected. Cells were cross-linked with 1% formaldehyde, and stored at −80° C. before use.
Chromatin immuno-precipitation (ChIP) assays were performed using SimpleChIP® Enzymatic Chromatin IP kit (Cell Signaling Technology, Beverly, Mass.) by the instruction of the kit. Briefly, cross-linked chromatin in the cells was enzymatic digested to generate fragments with a length of approximately 150-900 bp (1 to 5 nucleosomes). The chromatin was subjected to immuno-precipitation using the following antibodies: anti-Nurr1 (Santa Cruz), anti-acetyl histone H3 (Ac-H3), anti-HDAC1, anti-CoREST (all from Upstate Biotechnology), anti-MeCP2 (Chemicon,), anti-Foxa2 (Cell signaling Technology), anti-Pitx3, and IgG (both from Abcam). Immuno-precipitated DNA fragments were collected by protein G magnetic beads. DNA/protein complexes were eluted from the beads and reverse cross-linked at 65° C. for 2 h in the presence of proteinase K. Purified DNA were subjected to real-time PCR using primers specific to rat TH promoter loci (referring to Table 2). The abundance of the immuno-precipitated DNA in a sample was normalized to the amount of signal in the input DNA. The values of the control samples were set to 1.0.

midbrain explants = experiment: Midbrain explant cultures, TH+ cell numbers; assay type: cell-based, rat; conditions: UCN, 3 days
Procedure: Midbrain explants were dissected from E13.5 embryos by the method known by a person skilled in the art, for example as the protocol described by Baizabal and Covarrubias (2009) and performed with some modifications.
The dorsal midline of the explants was cut and the tissue was placed on porous (0.4 μm) transparent membrane inserts (25-mm in diameter, Nunc, Roskilde, Denmark) with the ventricular surface facing up. Inserts were then placed into six-well culture plates. Each well contained 1.5 mL of MEM medium supplemented with 10% FBS, 100 U/mL penicillin, and 100 μg/mL streptomycin. Explants were incubated at 37° C. with 5% CO2 for 4 hours, after which the explants were incubated in a serum-free DMEM/F12/N2 medium with or without UCN for 3 days. Midbrain explants were then fixed with 4% paraformaldehyde and immuno-histochemical analysis was performed.

[2] = SB, compared with the UCN effect

Compound: CCCC(=O)[O-].[Na+] [SB, sodium butyrate, reference compound]
- TH+ cell numbers ([1]; Nurr1-transduced cortical NPCs, SB, 3 days): increase in TH^+ cell numbers
- Nurr1 recruitment at the TH promoter (rat TH promoter; [2]): mimicked
- histone acetylation at the TH promoter (rat TH promoter; [2]): mimicked

Compound: Urocortin [UCN]
- conversion of Nurr1+ cortical NPCs into DA neurons ([1]; 0.5 μM UCN, 3 days): increased the conversion
- TH+ cells expressing the mature DA neuron-specific marker DAT ([1]; Nurr1-transduced NPCs, 0.5 μM UCN, 4 days): almost all of TH^+ cells
- TH+ cell numbers ([1]; cortical NPCs transduced with GFP, 0.5 μM UCN, 3 days): do not change
- TH+ cell numbers ([1]; cortical NPCs transduced with Nurr1, 0.5 μM UCN, 3 days): increase in TH^+ cell numbers
- Nurr1 protein occupancy at the TH promoter (rat TH promoter; 1 μM UCN, 2 days): significantly increased
- CoREST binding in the TH promoter regions (rat TH promoter; UCN): decreased CoREST binding
- Foxa2 occupancy at Nurr1 binding sites of TH promoter (rat TH promoter; UCN): increases
- HDAC1 recruitment at the TH promoter (rat TH promoter; UCN): significantly reduced
- histone H3 acetylation at TH promoter regions (rat TH promoter; UCN): significantly increased
- MeCP2 recruitment to the TH promoter (rat TH promoter; UCN, Nurr1-binding sites and repeated CpGs): significantly reduced
- number of TH+ cells in midbrain explants (midbrain explants): increases
